# Source: article PMC6576746, “Rational discovery of dual-indication multi-target PDE/Kinase inhibitor for precision anti-cancer therapy using structural systems pharmacology” (PLoS Computational Biology, 2019)
# Legend:
# Experiment in all cases: cells
# Parameters in all cases: species or system panel of human cancer cell lines; Eurofins OncoPanel proliferation; nuclei count by high-content fluorescence imaging, 10-point dose response
# A375 = settings: Homo sapiens, A-375, 72 h, cell count, 3 days
# In short: (§1)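 Ten half-log concentrations from 100 μM (0.1% DMSO max) applied one day post-seeding, 3-day exposure at 37°C; untreated time-zero plate for GI50. Readout is nuclear cell count by automated fluorescence imaging, giving EC50, IC50, GI50 and 0–10 activity area.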
# A431 = settings: Homo sapiens, A-431, 72 h, cell count, 3 days
# In short: as §1
# ChaGoK1 = settings: Homo sapiens, ChaGo-K-1, 72 h, cell count, 3 days
# In short: as §1
# EB-3 = settings: Homo sapiens, EB-3, 72 h, cell count, 3 days
# In short: as §1
# HPAF-II = settings: Homo sapiens, HPAF-II, 72 h, cell count, 3 days
# In short: as §1
# HT-1197 = settings: Homo sapiens, HT1197, 72 h, cell count, 3 days
# In short: as §1
# HuCCT1 = settings: Homo sapiens, HuCCT-1, 72 h, cell count, 3 days
# In short: as §1
# Jurkat = settings: Homo sapiens, Jurkat, 72 h, cell count, 3 days
# In short: as §1
# NCI-H520 = settings: Homo sapiens, NCI-H520, 72 h, cell count, 3 days
# In short: as §1
# SCC-9 = settings: Homo sapiens, SCC-9, 72 h, cell count, 3 days
# In short: as §1
# SNU-C2B = settings: Homo sapiens, SNU-C2B, 72 h, cell count, 3 days
# In short: as §1
# SU-DHL-4 = settings: Homo sapiens, SU-DHL-4, 72 h, cell count, 3 days
# In short: as §1
# SW579 = settings: SW579, 72 h, cell count, 3 days
# In short: as §1
# Y79 = settings: Homo sapiens, Y79, 72 h, cell count, 3 days
# In short: as §1
# [1] = 50% of maximum possible response
smiles,measurement,setting,value
C[C@@H]1CC(=O)NN=C1c1ccc(NN=C(C#N)C#N)cc1 [levosimendan],IC50,A375; [1],9.47 µM
same,GI50,A375; corrected for time zero,9 µM
same,EC50,A375; curve inflection point,9.47 µM
same,IC50,A431; [1],44.9 µM
same,GI50,A431; corrected for time zero,42.8 µM
same,EC50,A431; curve inflection point,44.9 µM
same,IC50,ChaGoK1; [1],84.9 µM
same,GI50,ChaGoK1; corrected for time zero,57.2 µM
same,EC50,ChaGoK1; curve inflection point,84.9 µM
same,IC50,EB-3; [1],30 µM
same,GI50,EB-3; corrected for time zero,23.6 µM
same,EC50,EB-3; curve inflection point,30 µM
same,IC50,HPAF-II; [1],65.8 µM
same,GI50,HPAF-II; corrected for time zero,54 µM
same,EC50,HPAF-II; curve inflection point,65.8 µM
same,IC50,HT-1197; [1],> 100 µM
same,GI50,HT-1197; corrected for time zero,96 µM
same,EC50,HT-1197; curve inflection point,> 100 µM
same,IC50,HuCCT1; [1],27.5 µM
same,GI50,HuCCT1; corrected for time zero,24.8 µM
same,EC50,HuCCT1; curve inflection point,25.4 µM
same,IC50,Jurkat; [1],22.1 µM
same,GI50,Jurkat; corrected for time zero,18.2 µM
same,EC50,Jurkat; curve inflection point,22.1 µM
same,IC50,NCI-H520; [1],> 100 µM
same,GI50,NCI-H520; corrected for time zero,> 100 µM
same,EC50,NCI-H520; curve inflection point,> 100 µM
same,IC50,SCC-9; [1],33.6 µM
same,GI50,SCC-9; corrected for time zero,26.3 µM
same,EC50,SCC-9; curve inflection point,33.6 µM
same,IC50,SNU-C2B; [1],55.2 µM
same,GI50,SNU-C2B; corrected for time zero,31.1 µM
same,EC50,SNU-C2B; curve inflection point,45.4 µM
same,IC50,SU-DHL-4; [1],4.77 µM
same,GI50,SU-DHL-4; corrected for time zero,3.31 µM
same,EC50,SU-DHL-4; curve inflection point,0.944 µM
same,IC50,SW579; [1],90.1 µM
same,GI50,SW579; corrected for time zero,67.9 µM
same,EC50,SW579; curve inflection point,90.1 µM
same,IC50,Y79; [1],36.2 µM
same,GI50,Y79; corrected for time zero,16 µM
same,EC50,Y79; curve inflection point,32.8 µM
